Legend:
[1] = Stability evaluation of solution formulation (Experimental Example 2); type: physicochemical; conditions: for Production rate of Alvocidib / Residual rate: solution formulation
Method: For Example 1, Example 2, Example 5, Example 6, Comparative Example 13 and Comparative Example 14, the attrition rate of the test compound and the conversion rate of the test compound to Alvocidib in a solution formulation were calculated by the following method.
Example 1, Example 2, Example 5, Example 6, Comparative Example 13 and Comparative Example 14 were each added to buffer solutions adjusted to pH 3.0, 4.0 and 5.0, respectively, at a concentration of 0.1 mg/mL, and left at 5° C. After 0, 1, 2 and 4 weeks, the residual rates of the compounds of Example 1, Example 2, […], Comparative Example 13 and Comparative Example 14 and the production rate of Alvocidib were determined by HPLC.
The buffer solutions used at each pH are as follows. • pH 3.0: 5 mM tartrate buffer solution/10% sucrose solution (pH 3.0) • pH 4.0: 5 mM tartrate buffer solution/10% sucrose solution (pH 4.0) • pH 5.0: 5 mM tartrate buffer solution/10% sucrose solution (pH 5.0)
(§1) The measurement conditions for HPLC are as follows.
• column: Acquity UPLC BEH C18, 1.7 um, 50×2.1 mm • column temperature: 40° C. • mobile phase: • A: water containing 0.1% trifluoroacetic acid • B: acetonitrile • A/B (min): • 80/20(0)→75/25(3)→0/100(3.5)→0/100(4)→80/20(4.01)→80/20(5) • flow rate: 0.8 mL/min • detection: ultraviolet visible detector, measurement wavelength 254 nm • injection: 3 μL

[2] = Evaluation of conversion rate to active form in buffer solution (Experimental Example 1); type: physicochemical
Method: For Examples 1 to 16 and Comparative Examples 1 to 14, the attrition rate of the test compound and the conversion rate of the test compound to Alvocidib in a buffer solution were calculated by the following method.
Examples 1 to 16 and Comparative Examples 1 to 14 were each left in buffer solutions adjusted to pH 5.0, 5.5, 6.0, 6.5, 7.0 and 7.4, respectively, at a concentration of 25 umol/L at 37° C. After 0, 0.5, 1, 2 and 3 hours, the residual rates of the compounds of Examples […] and the production rate of Alvocidib were determined by HPLC.
The buffer solutions used at each pH are as follows. • pH 5.0: 50 mM citrate buffer solution (pH 5.0) • pH 5.5: 50 mM citrate buffer solution (pH 5.5) • pH 6.0: 50 mM phosphate buffer solution (pH 6.0) • pH 6.5: 50 mM phosphate buffer solution (pH 6.5) • pH 7.0: 50 mM phosphate buffer solution (pH 7.0) • pH 7.4: 50 mM phosphate buffer solution (pH 7.4)
as §1

CN1CC[C@H](c2c(OC(=O)N(C)CCN)cc(O)c3c(=O)cc(-c4ccccc4Cl)oc23)[C@H](O)C1 [Comparative Example 13, reference compound]
Stability / conversion to Alvocidib in solution formulation at pH 3 ([1]; pH 3, 5° C., up to 4 weeks): stable
Stability / conversion to Alvocidib in solution formulation at pH 4 ([1]; pH 4, 5° C., up to 4 weeks): gradually converted to Alvocidib
production rate of Alvocidib / converted to Alvocidib ([1]; solution formulation pH 5, 5° C., after 4 weeks): about 40%
Production rate of Alvocidib ([1]; pH3.0, 0 week): 0.1%
Residual rate ([1]; pH3.0, 0 week): 99.6%
Production rate of Alvocidib ([1]; pH3.0, 1 week): 0.2%
Residual rate ([1]; pH3.0, 1 week): 99.3%
Production rate of Alvocidib ([1]; pH3.0, 2 week): 0.3%
Residual rate ([1]; pH3.0, 2 week): 99.5%
Production rate of Alvocidib ([1]; pH3.0, 4 week): 0.6%
Residual rate ([1]; pH3.0, 4 week): 99.1%
Production rate of Alvocidib ([1]; pH4.0, 0 week): 0.2%
Residual rate ([1]; pH4.0, 0 week): 99.4%
Production rate of Alvocidib ([1]; pH4.0, 1 week): 1.2%
Residual rate ([1]; pH4.0, 1 week): 98.1%
Production rate of Alvocidib ([1]; pH4.0, 2 week): 2.2%
Residual rate ([1]; pH4.0, 2 week): 97.4%
Production rate of Alvocidib ([1]; pH4.0, 4 week): 4.8%
Residual rate ([1]; pH4.0, 4 week): 94.4%
Production rate of Alvocidib ([1]; pH5.0, 0 week): 1.4%
Residual rate ([1]; pH5.0, 0 week): 98.1%
Production rate of Alvocidib ([1]; pH5.0, 1 week): 13.7%
Residual rate ([1]; pH5.0, 1 week): 84.3%
Production rate of Alvocidib ([1]; pH5.0, 2 week): 25.3%
Residual rate ([1]; pH5.0, 2 week): 71.7%
Production rate of Alvocidib ([1]; pH5.0, 4 week): 39.4%
Residual rate ([1]; pH5.0, 4 week): 55.9%
Production rate of Alvocidib ([2]; pH5.0, 0 hr): 0.0%
Residual rate ([2]; pH5.0, 0 hr): 99.8%
Stability in buffer solution at pH 5 ([2]; pH 5, 37° C., up to 2 or 3 hours): unstable
Production rate of Alvocidib ([2]; pH5.0, 0.5 hr): 2.2%
Residual rate ([2]; pH5.0, 0.5 hr): 96.0%
Production rate of Alvocidib ([2]; pH5.0, 1 hr): 4.1%
Residual rate ([2]; pH5.0, 1 hr): 94.0%
Production rate of Alvocidib ([2]; pH5.0, 2 hr): 8.3%
Residual rate ([2]; pH5.0, 2 hr): 90.8%
Production rate of Alvocidib ([2]; pH5.0, 3 hr): 12.3%
Residual rate ([2]; pH5.0, 3 hr): 86.5%
Production rate of Alvocidib ([2]; pH5.5, 0 hr): 0.0%
Residual rate ([2]; pH5.5, 0 hr): 98.3%
Production rate of Alvocidib ([2]; pH5.5, 0.5 hr): 6.5%
Residual rate ([2]; pH5.5, 0.5 hr): 91.3%
Production rate of Alvocidib ([2]; pH5.5, 1 hr): 11.9%
Residual rate ([2]; pH5.5, 1 hr): 85.5%
Production rate of Alvocidib ([2]; pH5.5, 2 hr): 22.6%
Residual rate ([2]; pH5.5, 2 hr): 73.9%
Production rate of Alvocidib ([2]; pH5.5, 3 hr): 32.2%
Residual rate ([2]; pH5.5, 3 hr): 64.7%
Production rate of Alvocidib ([2]; pH6.0, 0 hr): 0.0%
Residual rate ([2]; pH6.0, 0 hr): 98.7%
Production rate of Alvocidib ([2]; pH6.0, 0.5 hr): 23.8%
Residual rate ([2]; pH6.0, 0.5 hr): 72.9%
Production rate of Alvocidib ([2]; pH6.0, 1 hr): 40.3%
Residual rate ([2]; pH6.0, 1 hr): 56.3%
Production rate of Alvocidib ([2]; pH6.0, 2 hr): 63.0%
Residual rate ([2]; pH6.0, 2 hr): 30.4%
Production rate of Alvocidib ([2]; pH6.0, 3 hr): 75.5%
Residual rate ([2]; pH6.0, 3 hr): 16.8%
Production rate of Alvocidib ([2]; pH6.5, 0 hr): 0.2%
Residual rate ([2]; pH6.5, 0 hr): 99.5%
Production rate of Alvocidib ([2]; pH6.5, 0.5 hr): 51.7%
Residual rate ([2]; pH6.5, 0.5 hr): 42.2%
Production rate of Alvocidib ([2]; pH6.5, 1 hr): 73.5%
Residual rate ([2]; pH6.5, 1 hr): 20.0%
Production rate of Alvocidib ([2]; pH6.5, 2 hr): 87.1%
Residual rate ([2]; pH6.5, 2 hr): 3.8%
Production rate of Alvocidib ([2]; pH6.5, 3 hr): 90.0%
Residual rate ([2]; pH6.5, 3 hr): 0.9%
Production rate of Alvocidib ([2]; pH7.0, 0 hr): 0.5%
Residual rate ([2]; pH7.0, 0 hr): 97.8%
Production rate of Alvocidib ([2]; pH7.0, 0.5 hr): 82.2%
Residual rate ([2]; pH7.0, 0.5 hr): 9.3%
Production rate of Alvocidib ([2]; pH7.0, 1 hr): 89.7%
Residual rate ([2]; pH7.0, 1 hr): 1.3%
Production rate of Alvocidib ([2]; pH7.0, 2 hr): 91.0%
Residual rate ([2]; pH7.0, 2 hr): 0.0%
Production rate of Alvocidib ([2]; pH7.0, 3 hr): 91.0%
Residual rate ([2]; pH7.0, 3 hr): 0.0%
Production rate of Alvocidib ([2]; pH7.4, 0 hr): 1.3%
Residual rate ([2]; pH7.4, 0 hr): 97.2%
Production rate of Alvocidib ([2]; pH7.4, 0.5 hr): 90.5%
Residual rate ([2]; pH7.4, 0.5 hr): 0.8%
Production rate of Alvocidib ([2]; pH7.4, 1 hr): 91.2%
Residual rate ([2]; pH7.4, 1 hr): 0.0%
Production rate of Alvocidib ([2]; pH7.4, 2 hr): 91.4%
Residual rate ([2]; pH7.4, 2 hr): 0.0%
Production rate of Alvocidib ([2]; pH7.4, 3 hr): 92.1%
Residual rate ([2]; pH7.4, 3 hr): 0.0%

— US12617779B2, “Self degradation-type CDK9 inhibitor prodrug and liposome encapsulating same” (Sumitomo Pharma Co., Ltd., priority 2021, dated 2026)
